The values that follow come from publication PMC10791743, “Selective CK1α degraders exert antiproliferative activity against a broad range of human cancer cell lines” (Nature Communications, 2024).

Values joined by “and” are separate entries in the source; they are usually repeats but may differ in a detail not shown here. Identical values can stand only once. “Also recorded” adds a separate entry of the source.

Broadly, the IC50 is the point on the concentration scale where inhibition reaches its midpoint. A low value points to higher potency. In general, fraction unbound refers to free concentration divided by total concentration. Read a high fraction unbound as weak binding.

The test system of one series is UCSD-AML1 cells. The series is described as follows: CTG viability, UCSD-AML1. The class given is cell-based, human. The note with it: for IC50: UCSD-AML cells, replicate values. As to the method: (§1) After establishing the potency and selectivity of our lead CK1α degraders, we investigated their effect on a panel of AML and ALL cell lines (Fig. 3a).
(§2) The primary screen was performed in 384-well format using the CellTiter Glo (CTG) luminescent cell viability assay (Promega) as previously described. 3630 compounds from the St. Jude proprietary molecular glue library were screened against 9 human cancer cell lines (HD-MB03, MB004, MB002, MHH-CALL4, MOLM-13, TF-1, HEL, OCI-AML3, AML193). Each cell line was cultured in the complete medium recommended by the vendor and seeded in Corning 8804 BC white 384-well assay plates at densities of 1000, 1000, 1500, 7500, 1250, 156, 625, 1250, 1250 cells per well for HD-MB03, MB004, MB002, MHH-CALL4, MOLM-13, TF-1, HEL, OCI-AML, AML193, respectively. After overnight incubation at 37 °C in a humidified 5% CO2 incubator, cells were treated with compounds in dose–response format using a Pintool on a Biomek FX^P Laboratory Automation Workstation (Beckman Coulter). After 72 h of incubation, cell proliferation was assessed using a CellTiter-Glo (CTG) luminescent cell viability assay (Promega) according to the manufacturer’s instructions. Luminescence signal was measured using an EnVision plate reader (PerkinElmer).
HD-MB03 cell line was obtained from Drs. Milde, Witt and Deubzer[52]. HD-MB03 and MB004 cells were grown in a neurobasal medium supplemented with glutamine, streptomycin, penicillin, B27, EGF, bFGF, and heparin as previously described. MB002 and MB004 cells were obtained from Dr Yoon-Jae Cho[54]. MB002 cells were cultured in 80% neurobasal medium supplemented with glutamine, streptomycin, penicillin, B27, and 20% conditioned media from previous passages; EGF, bFGF, and heparin were also added to the medium. MHH-CALL4, NALM-16, MHH-CALL-2 cells were obtained from the German Collection of Microorganisms and Cell Cultures GmbH (DSMZ, Germany). PER-117 cells were obtained from Telethon Kids Institute (Perth, Australia). The cells were cultured in RPMI1640 medium supplemented with 10% FBS (Hyclone), Penicillin/Streptomycin (100 units/mL), and Glutamine (100 µM) except for MHH-CALL-2 cells where 20% FBS were used. MOLM-13 cells were obtained from DSMZ (ACC 554) and cultured in RPMI-1640 media (Gibco) supplemented with 20% FBS (R&D Systems) and 100 U/ml penicillin-streptomycin (Gibco). HNT-34 cells were purchased from DSMZ (ACC 600) and cultured in RPMI-1640 media supplemented with 20% FBS and 100 U/ml penicillin-streptomycin. Kasumi-3 cells were purchased from ATCC (CRL-2725) and cultured in RPMI-1640 media supplemented with 20% FBS and 100 U/ml penicillin-streptomycin. […]

The next series relates to PER117 cells. The series is described as follows: CTG viability, PER117. It is filed as cell-based, human. The following applies: for IC50: PER117 cells, replicate values. On the procedure: as §1, §2
HD-MB03 cell line was obtained from Drs. Milde, Witt and Deubzer[52]. HD-MB03 and MB004 cells were grown in a neurobasal medium supplemented with glutamine, streptomycin, penicillin, B27, EGF, bFGF, and heparin as previously described. MB002 and MB004 cells were obtained from Dr Yoon-Jae Cho[54]. MB002 cells were cultured in 80% neurobasal medium supplemented with glutamine, streptomycin, penicillin, B27, and 20% conditioned media from previous passages; EGF, bFGF, and heparin were also added to the medium. MHH-CALL4, NALM-16, MHH-CALL-2 cells were obtained from the German Collection of Microorganisms and Cell Cultures GmbH (DSMZ, Germany). PER-117 cells were obtained from Telethon Kids Institute (Perth, Australia). The cells were cultured in RPMI1640 medium supplemented with 10% FBS (Hyclone), Penicillin/Streptomycin (100 units/mL), and Glutamine (100 µM) except for MHH-CALL-2 cells where 20% FBS were used. MOLM-13 cells were obtained from DSMZ (ACC 554) and cultured in RPMI-1640 media (Gibco) supplemented with 20% FBS (R&D Systems) and 100 U/ml penicillin-streptomycin (Gibco). HNT-34 cells were purchased from DSMZ (ACC 600) and cultured in RPMI-1640 media supplemented with 20% FBS and 100 U/ml penicillin-streptomycin. Kasumi-3 cells were purchased from ATCC (CRL-2725) and cultured in RPMI-1640 media supplemented with 20% FBS and 100 U/ml penicillin-streptomycin. UCSD-AML1 cells were purchased from DSMZ (ACC 691) and cultured in RPMI-1640 media supplemented with 20% FBS, 100 U/ml penicillin–streptomycin, and 10 ng/ml human GM-CSF (PeproTech). […] OCI-AML3 cells were purchased from DSMZ (ACC 690) and cultured in Alpha-MEM media (Invitrogen) supplemented with 20% FBS and 100 U/ml penicillin–streptomycin. HEL cells were obtained from Dr. Charles Mullighan and cultured in RPMI-1640 media supplemented with 10% FBS and 100 U/ml penicillin-streptomycin. AML193 cells were purchased from DSMZ (ACC 549) and cultured in IMDM supplemented with 5% FBS, 100 U/ml penicillin–streptomycin, Insulin–Transferrin–Selenium (ITS-G, Gibco), and 5 ng/ml human GM-CSF. Cell identity was confirmed by STR profiling using PowerPlex® Fusion System (Promega).

A further series relates to p21. The series can be described thus: p21 immunoblotting in MOLM-13 cells. The note with it: for p21 quantified protein expression (western blot): 3 western blots. It is filed as cell-based, human. On the technique in general: In western blotting, separated proteins are transferred to a membrane and probed.
A short description of series [1]: Plasma protein binding assay (RED), human. The class given is in vitro ADME. On the procedure: page 33: the need for further incubation. Following quenching, all plates were thoroughly mixed at 600 rpm for 10 minutes and centrifuged at 4000 rpm for 20 minutes. Supernatants were transferred to […] MS/MS analysis. Plasma stability was evaluated by determining the half-life through a least-squares fit of multiple time points based on first-order kinetics. Plasma protein binding assay: Test compound stock solutions were prepared at a concentration of 10 mM in DMSO. A Single-Use RED (Rapid Equilibrium Dialysis) device was acquired from Thermo Scientific (Cat. No: 99006, Rockford, IL). The sample preparation for plasma protein binding followed a modified version of Waters' method6. After thawing, plasma was centrifuged at 1000 rpm for 10 minutes to eliminate any particulates. Each compound was then prepared at a concentration of 10 µM in either human or mouse plasma. In the plasma protein binding assessment, 300 µL of spiked plasma solutions were introduced into the sample chamber (indicated by the red ring), while 550 µL of DPBS was added to the adjacent chamber. The plate was sealed and incubated at 37°C on an orbital shaker (100 rpm) for 4 hours. Post -incubation, 50 µL aliquots were withdrawn from each side of the insert and dispensed into a 96 -well storage plate. To create analytically identical sample matrices (matrix matching), an equivalent volume of blank plasma or DPBS was added to the necessary wells, followed by quenching w ith 3-fold (v:v) cold acetonitrile containing warfarin as the internal standard. Subsequently, the sealed plates were well -mixed at 600 rpm for 10 minutes and then centrifuged at 4000 rpm for 20 minutes. Supernatants were transferred to analytical […] Test compound concentrations were quantified in both the buffer and plasma chambers by determining peak areas relative to the internal standard. The percentage of the test compound bound to plasma was calculated using the following equation (4): %Free = (Concentration buffer chamber / concentration plasma chamber) x 100% and equation (5) %Bound = 100% - %Free.

The mark [2] stands for this setting: time course 0-8 hrs, relative to no treatment.
The mark [3] stands for this setting: human plasma, single replicates.

Take `Cc1cccc(C(=O)Nc2ccc3c(c2)CN(C2CCC(=O)NC2=O)C3=O)c1` (stereo not shown) [SJ0040]: the IC50 was 3 nM in the series on UCSD-AML1 cells (Homo sapiens); 2.1 nM with UCSD-AML1 cells; 5 nM in the series with PER117 cells (Homo sapiens); 4.7 nM and 5.3 nM with PER117 cells.
Take `O=C1CCC(N2Cc3cc(Nc4noc5ccccc45)ccc3C2=O)C(=O)N1` (stereo not shown) [SJ3149]: the “p21 induction, time course” value with p21 (MOLM-13, 1 μM, 0-8 h) is “not present until 4 h; also recorded: does not occur until after 4 hours”. In addition, the “p21 quantified protein expression (western blot)” value with p21 (time 1 hr, relative to no treatment) was 0.8518 and 1.28 and 0.8338; in the series on p21 (time 2 hrs, relative to no treatment), 1.31 and 1.5551 and 1.213; with p21 (time 4 hrs, relative to no treatment), 4.341 and 2.673 and 4.158; with p21 (time 8 hrs, relative to no treatment), 4.765 and 2.907 and 5.628. For the same compound, the “IC50 (line fit, sigmoidal 4PL) of p21 expression versus time” value with p21 (time course 0-8 hrs, X axis is time) worked out at 3.071. The “Bottom (line fit, sigmoidal 4PL) of p21 expression versus time” value with p21 (setting [2]) is recorded as 0.988. Also, the “Top (line fit, sigmoidal 4PL) of p21 expression versus time” value with p21 (setting [2]) stood at 4.463. Moreover, the “Activity against UCSD-AML1 cells” value with UCSD-AML1 cells (CTG) is given as “sub-nanomolar activity”. The IC50 with UCSD-AML1 cells is 1 nM and 0.4 nM and 1.1 nM; with PER117 cells (Homo sapiens), 0.8 nM; with PER117 cells, 1.1 nM. For the same compound, in the series on PER117 cells (CTG), the “Activity against PER117 cells” value was “sub-nanomolar activity”. The fraction unbound at 4 h, 10 µM in series [1] (human, plasma) was 0.023.
With `O=C1CCC(N2Cc3c(CNC(=O)c4ccc(F)cc4)cccc3C2=O)C(=O)N1` (stereo not shown) [SJ7095], the p21 protein levels entry in the series on p21 (MOLM-13, increasing concentrations, 4 h) was “dose-dependent upregulation of p21”.
In the case of `O=C1CCC(N2Cc3cc(Nc4noc5ccccc45)ccc3C2=O)C(=O)N1` (stereo not shown) [SJ001043149-1], the “AVG %Bound” value in series [1] (human plasma, average of 3 replicates) is given as 97.7%. In addition, in series [1] (setting [3]), the “%Bound” value was 97.5829% and 97.7158% and 97.77%; the “%Free” value was 2.417% and 2.284% and 2.23%.
